Targets include HLA B*3501 (Homo sapiens, UniProt P01889, A329T/A93T/A95T/C349S/D201E/D98Y/E176V/E187L/E204Q/E69T/I218V/K202T/L119I/Q94N/R155S/R180L/S121R/S35A/S48A/T118I/V127L/V306I/V36M/Y140S/Y91F); H-2 K^d (Mus musculus, UniProt P01902); HLA B*5802 (Homo sapiens, UniProt P01889, A329T/C349S/D201E/D98Y/E176V/E187L/E204Q/E69T/G107R/I218V/I90N/K202T/L105A/N104I/N87E/Q89R/Q94S/R106L/R155S/R180L/R86G/S101N/S121W/S35A/S48A/V127L/V306I/V36M/Y140S/Y91M); HLA B*5101 (Homo sapiens, UniProt P01889, A329T/A93T/A95T/C349S/D138N/D201E/D98Y/E187L/E204Q/E69T/G107R/I218V/K202T/L105A/L119W/N104I/Q94N/R106L/R155S/R180L/S101N/S121T/S35A/S48A/V306I/V36M/Y195H/Y91F); HLA B*5301 (Homo sapiens, UniProt P01889, A329T/A93T/A95T/C349S/D201E/D98Y/E176V/E187L/E204Q/E69T/G107R/I218V/K202T/L105A/L119I/N104I/Q94N/R106L/R155S/R180L/S101N/S121R/S35A/S48A/T118I/V127L/V306I/V36M/Y140S/Y91F); H-2 K^k (Mus musculus, UniProt P04223); HLA A*6802 (Homo sapiens, UniProt P04439, A269V/D140Y/D185E/E176V/E277Q/E87N/F33Y/G231S/I121R/I166T/I218V/L180W/L300P/L318F/N151K/P208A/P217A/Q86R/R138H/R169H/S129P/T345S/V36M); HLA B*5801 (Homo sapiens, UniProt P01889, A329T/C349S/D201E/D98Y/E176V/E187L/E204Q/E69T/G107R/I218V/I90N/K202T/L105A/L119I/N104I/N87E/Q89R/Q94S/R106L/R155S/R180L/R86G/S101N/S121R/S35A/S48A/T118I/V127L/V306I/V36M/Y140S/Y91M); H-2 D^b (Mus musculus, UniProt P01899); H-2 D^d (Mus musculus, UniProt P01900); HLA B*5401 (Homo sapiens, UniProt P01889, A329T/C349S/D138N/D201E/E176V/E187T/E204Q/E69G/I76V/K202T/L119W/R155S/R180L/S121T/S35A/S48A/V127L/V306I/V36M/Y140L).

Holding throughout (type): binding
The target of the next experiment is HLA B*1503 (Homo sapiens, UniProt P01889, A329T/A93T/A95T/C349S/D201E/D98Y/E187L/E204Q/K202T/N87E/Q94N/R155S/R180L/S121R/S35A/V306I/V36M/Y140S/Y91S). Kind of experiment: biochemical.
The target of a further experiment is HLA B*1501 (Homo sapiens, UniProt P01889, A329T/A93T/A95T/C349S/D201E/D98Y/E187L/E204Q/E69M/E70A/K202T/N87E/Q94N/R155S/R180W/S121R/S35A/S48A/V306I/V36M/Y140S/Y91S). Nature of the experiment: biochemical.
A further experiment has as its target HLA A*3201 (Homo sapiens, UniProt P04439, A270S/D101S/D185E/E176V/E277Q/F133L/G103R/G107R/G231S/H175R/I121M/I218V/I322F/K168Q/L105A/L300P/L318F/M331R/P208A/P217A/Q94H/R106L/R138Q/S129P/T104I/T323A/T345S/V100E/V321M/V358M). Nature of the experiment: biochemical.
Another experiment has as its target HLA B*0801 (Homo sapiens, UniProt P01889, A93T/A95T/D138N/E176V/E187T/K202T/Q94N/R180D/S35A/V36M/Y33D/Y91F). Kind of experiment: biochemical.
Another experiment concerns the target HLA A*3001 (Homo sapiens, UniProt P04439, D140H/D185E/E176W/F33S/G80R/H175R/K168Q/R138E/R41S). Nature of the experiment: biochemical.

H-2 D^d, sequence (P01900 whole entry, looked up): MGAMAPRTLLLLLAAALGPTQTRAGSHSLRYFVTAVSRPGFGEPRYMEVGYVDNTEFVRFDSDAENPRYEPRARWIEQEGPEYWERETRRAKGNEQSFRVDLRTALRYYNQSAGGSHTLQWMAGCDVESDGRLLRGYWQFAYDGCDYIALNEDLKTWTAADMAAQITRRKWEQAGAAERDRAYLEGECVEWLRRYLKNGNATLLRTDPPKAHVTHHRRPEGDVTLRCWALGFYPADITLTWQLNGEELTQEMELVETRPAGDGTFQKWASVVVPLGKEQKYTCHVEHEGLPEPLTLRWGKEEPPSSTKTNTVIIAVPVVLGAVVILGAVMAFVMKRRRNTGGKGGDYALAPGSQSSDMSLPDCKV
H-2 D^b, sequence (P01887 21-119): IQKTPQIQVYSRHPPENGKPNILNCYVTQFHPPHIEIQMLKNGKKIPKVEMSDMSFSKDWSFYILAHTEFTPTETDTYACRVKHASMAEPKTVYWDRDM
H-2 D^b, sequence (P01899 25-362): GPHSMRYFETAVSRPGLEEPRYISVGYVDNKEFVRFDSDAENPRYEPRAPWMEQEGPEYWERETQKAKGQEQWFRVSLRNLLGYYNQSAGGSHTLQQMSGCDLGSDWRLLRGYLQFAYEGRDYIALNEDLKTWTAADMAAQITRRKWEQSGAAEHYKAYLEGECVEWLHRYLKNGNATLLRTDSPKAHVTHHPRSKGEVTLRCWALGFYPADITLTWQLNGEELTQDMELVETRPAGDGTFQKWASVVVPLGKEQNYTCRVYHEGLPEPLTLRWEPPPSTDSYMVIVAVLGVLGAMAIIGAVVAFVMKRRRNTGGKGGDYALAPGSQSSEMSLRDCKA
H-2 K^d, sequence (P01887 21-119): as the sequence (P01887 21-119) above
H-2 K^d, sequence (P01902 22-368): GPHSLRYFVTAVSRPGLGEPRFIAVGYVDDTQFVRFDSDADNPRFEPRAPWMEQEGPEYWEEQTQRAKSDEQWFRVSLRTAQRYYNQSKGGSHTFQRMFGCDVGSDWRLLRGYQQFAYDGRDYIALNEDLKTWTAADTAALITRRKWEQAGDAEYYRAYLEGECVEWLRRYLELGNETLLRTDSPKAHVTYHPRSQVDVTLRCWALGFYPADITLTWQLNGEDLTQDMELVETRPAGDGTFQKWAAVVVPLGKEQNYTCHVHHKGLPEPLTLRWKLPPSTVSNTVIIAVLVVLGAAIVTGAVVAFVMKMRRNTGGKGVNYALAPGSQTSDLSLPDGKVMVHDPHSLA
H-2 K^k, sequence (P01887 21-119): as the sequence (P01887 21-119) above
H-2 K^k, sequence (P04223 22-369): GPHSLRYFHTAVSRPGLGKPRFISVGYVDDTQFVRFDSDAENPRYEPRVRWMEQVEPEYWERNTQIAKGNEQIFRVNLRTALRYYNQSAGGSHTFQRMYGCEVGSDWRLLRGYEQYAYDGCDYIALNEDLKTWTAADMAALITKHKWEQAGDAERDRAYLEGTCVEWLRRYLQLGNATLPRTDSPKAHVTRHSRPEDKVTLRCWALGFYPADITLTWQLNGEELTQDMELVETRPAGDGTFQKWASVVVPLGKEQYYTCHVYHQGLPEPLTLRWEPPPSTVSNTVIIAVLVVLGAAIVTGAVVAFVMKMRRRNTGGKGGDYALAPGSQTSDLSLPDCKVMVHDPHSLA

Regarding XXXXPXXXX [3064.0093], the “Normalized average relative binding affinity(ARB)” value at HLA B*3501 was found to be 0.37; on H-2 K^d it was 0.094; on HLA B*5802, 0.075; at HLA B*1503 it was 0.46; on HLA B*5101 it was 0.50; at HLA B*5301 it was 0.14. Also, the “Normalized average relative binding affinity(ARB)” value is on record as 0.89 at HLA B*1501; 0.16 on HLA A*3201; 0.072 on H-2 K^k; 0.16 at HLA A*6802; 0.011 on HLA B*0801; 0.53 on HLA A*3001. Besides, the “Normalized average relative binding affinity(ARB)” value is 0.19 at HLA B*5801, 0.038 on H-2 D^b, 0.023 on H-2 D^d and 0.51 on HLA B*5401.
Consider XXXXQXXXX [3064.0094], for which the “Normalized average relative binding affinity(ARB)” value at HLA B*3501 is 0.28; at H-2 K^d, 0.15; on HLA B*5802 it was 0.063; on HLA B*1503, 0.20; on HLA B*5101, 0.29; at HLA B*5301, 0.12. The “Normalized average relative binding affinity(ARB)” value was 1.0 on HLA B*1501; 0.38 at HLA A*3201; 0.099 on H-2 K^k; 0.077 on HLA A*6802; 0.037 on HLA B*0801; 0.20 at HLA A*3001. Moreover, the “Normalized average relative binding affinity(ARB)” value was found to be 0.19 at HLA B*5801, 0.023 on H-2 D^b, 0.15 at H-2 D^d and 0.40 at HLA B*5401.
Turning to XXXXRXXXX [3064.0095], the “Normalized average relative binding affinity(ARB)” value at HLA B*3501 came out at 0.23; at H-2 K^d it was 0.023; at HLA B*5802, 0.20; on HLA B*1503 it was 0.28; at HLA B*5101 it was 0.49; on HLA B*5301, 0.11. The “Normalized average relative binding affinity(ARB)” value turned out to be 0.64 at HLA B*1501; 0.27 on HLA A*3201; 0.072 on H-2 K^k; 0.19 at HLA A*6802; 1.0 on HLA B*0801; 0.80 on HLA A*3001. Moreover, the “Normalized average relative binding affinity(ARB)” value on HLA B*5801 stood at 0.15; on H-2 D^b, 0.020; at H-2 D^d, 1.0; on HLA B*5401, 0.21.
Regarding XXXXSXXXX [3064.0096], the “Normalized average relative binding affinity(ARB)” value is reported as 0.27 on HLA B*3501; 1.0 at H-2 K^d; 0.063 on HLA B*5802; 0.47 on HLA B*1503; 0.35 on HLA B*5101; 0.16 at HLA B*5301. Also, the “Normalized average relative binding affinity(ARB)” value is listed as 0.71 at HLA B*1501; 0.20 on HLA A*3201; 0.18 at H-2 K^k; 0.34 at HLA A*6802; 0.065 at HLA B*0801; 1.0 on HLA A*3001. Further, the “Normalized average relative binding affinity(ARB)” value at HLA B*5801 is 0.31; at H-2 D^b, 0.079; on H-2 D^d, 0.21; on HLA B*5401, 0.18.
In the case of XXXXTXXXX [3064.0097], the “Normalized average relative binding affinity(ARB)” value on HLA B*3501 came out at 0.21; on H-2 K^d, 0.42; at HLA B*5802, 0.16; on HLA B*1503, 0.43; on HLA B*5101, 0.51; at HLA B*5301, 0.11. The “Normalized average relative binding affinity(ARB)” value on HLA B*1501 is on record as 0.62; at HLA A*3201, 0.062; on H-2 K^k it was 0.16; on HLA A*6802 it was 0.044; on HLA B*0801, 0.011; at HLA A*3001, 0.18. The “Normalized average relative binding affinity(ARB)” value is 0.33 at HLA B*5801, 0.018 on H-2 D^b, 0.18 on H-2 D^d and 0.085 on HLA B*5401.
Regarding XXXXVXXXX [3064.0098], the “Normalized average relative binding affinity(ARB)” value at HLA B*3501 is reported as 0.22; on H-2 K^d, 0.24; on HLA B*5802, 0.87; on HLA B*1503, 0.24; at HLA B*5101, 0.36; on HLA B*5301, 0.18. The “Normalized average relative binding affinity(ARB)” value on HLA B*1501 is 0.56; at HLA A*3201 it was 0.47; at H-2 K^k, 0.18; on HLA A*6802, 0.51; at HLA B*0801, 0.019; at HLA A*3001, 0.35. For the same sequence, the “Normalized average relative binding affinity(ARB)” value on HLA B*5801 is listed as 1.0; at H-2 D^b it was 0.021; on H-2 D^d it was 0.25; on HLA B*5401, 0.042.

(Values after article PMC2248166, “Quantitative peptide binding motifs for 19 human and mouse MHC class I molecules derived using positional scanning combinatorial peptide libraries” (Immunome Research, 2008).)
